According to PMC9653173, “Trotabresib (CC-90010) in combination with adjuvant temozolomide or concomitant temozolomide plus radiotherapy in patients with newly diagnosed glioblastoma” (Neuro-Oncology Advances, 2022):
Like-named read-outs stand apart in the source and are kept apart here.

Tests used:
[1] = Trotabresib plasma pharmacokinetics, CC-90010-GBM-002; format: in vivo, human; conditions: for Cmax: read-out: Cmax, GM (GCV%)
Protocol: The sample size was not based on strict statistical power calculations. Safety, efficacy, and pharmacodynamic analyses were summarized using descriptive statistics. Plasma pharmacokinetic parameters were calculated by the noncompartmental analysis method from plasma concentration–time profiles.

[2] = tested on: glioblastoma PDX models; assay: Tumor growth inhibition in glioblastoma patient-derived xenograft models; format: in vivo; conditions: Supplementary Figure S1
Excerpt: Supplementary Figure 1. Trotabresib-mediated tumor growth inhibition in a glioblastoma patient-derived xenograft with and without TMZ. [picture] ^aTMZ given on days 7–9 and 22–24.

[3] = tested on: MYC; conditions: in vitro; ref Bristol Myers Squibb; data on file; cited from earlier work

For `Cn1cc(-c2cc(S(C)(=O)=O)ccc2OCC2CC2)c2ccccc2c1=O` [Trotabresib], the “Reduction in plasma trotabresib concentration” value ([1]; 168 hours post-dose) was > 75%, the “mean t½” value ([1]; all cohorts, standard deviation ± 27.2) was ~ 74 h and the “Increase in exposure with dose” value ([1]; both treatment settings, 15-45 mg) was “proportional to dose”. For the same compound, the Cmax ([1]; human, plasma, oral, adjuvant trotabresib 15 mg + TMZ, Day 1) was 201 ng/mL, the Tmax ([1]; human, plasma, oral, adjuvant trotabresib 15 mg + TMZ, Day 1, read-out: tmax, median (range)) was 1 h and the Cmax ([1]; human, plasma, oral, adjuvant trotabresib 15 mg + TMZ, Day 4) was 433 ng/mL. The Tmax ([1]; human, plasma, oral, adjuvant trotabresib 15 mg + TMZ, Day 4, read-out: tmax, median (range)) was 1.5 h, the Cmax ([1]; human, plasma, oral, adjuvant trotabresib 30 mg + TMZ, Day 1) was 306 ng/mL and the Tmax ([1]; human, plasma, oral, adjuvant trotabresib 30 mg + TMZ, Day 1, read-out: tmax, median (range)) was 2 h. It also gave a Cmax ([1]; human, plasma, oral, adjuvant trotabresib 30 mg + TMZ, Day 4) of 822 ng/mL, a Tmax ([1]; human, plasma, oral, adjuvant trotabresib 30 mg + TMZ, Day 4, read-out: tmax, median (range)) of 1.5 h and a Cmax ([1]; human, plasma, oral, adjuvant trotabresib 45 mg + TMZ, Day 1) of 522 ng/mL. It also gave a Tmax ([1]; human, plasma, oral, adjuvant trotabresib 45 mg + TMZ, Day 1, read-out: tmax, median (range)) of 2 h, a Cmax ([1]; human, plasma, oral, adjuvant trotabresib 45 mg + TMZ, Day 4) of 1160 ng/mL and a Tmax ([1]; human, plasma, oral, adjuvant trotabresib 45 mg + TMZ, Day 4, read-out: tmax, median (range)) of 1.5 h. For the same compound, the half-life ([1]; human, plasma, oral, all cohorts, standard deviation ± 27.2, read-out: mean t½ (converted)) was 74.2 h, the Cmax ([1]; human, plasma, oral, concomitant trotabresib 15 mg + TMZ + RT, Day 1) was 167 ng/mL and the Tmax ([1]; human, plasma, oral, concomitant trotabresib 15 mg + TMZ + RT, Day 1, read-out: tmax, median (range)) was 2 h. For the same compound, the Cmax ([1]; human, plasma, oral, concomitant trotabresib 15 mg + TMZ + RT, Day 4) was 383 ng/mL, the Tmax ([1]; human, plasma, oral, concomitant trotabresib 15 mg + TMZ + RT, Day 4, read-out: tmax, median (range)) was 1.3 h and the Cmax ([1]; human, plasma, oral, concomitant trotabresib 30 mg + TMZ + RT, Day 1) was 309 ng/mL. For the same compound, the Tmax ([1]; human, plasma, oral, concomitant trotabresib 30 mg + TMZ + RT, Day 1, read-out: tmax, median (range)) was 2 h, the Cmax ([1]; human, plasma, oral, concomitant trotabresib 30 mg + TMZ + RT, Day 4) was 874 ng/mL and the Tmax ([1]; human, plasma, oral, concomitant trotabresib 30 mg + TMZ + RT, Day 4, read-out: tmax, median (range)) was 1.5 h. For the same compound, the Tmax ([1]; human, plasma, oral, day 4, all cohorts, read-out: tmax) was 0.5 to 4 h, the “Effect on antiproliferative effects of TMZ” value ([2]; glioblastoma PDX models) was “enhances the antiproliferative effects of TMZ” and the “Antitumor activity as a single agent” value ([2]; glioblastoma models) was “has antitumor activity in glioblastoma models as a single agent”. For the same compound, the MYC expression [3] was “downregulated in vitro”.
